Laboratory results reported in PubChem BioAssay (NCI).
Where “and” joins values, the source holds several entries; their conditions need not be identical. Equal entries are not always repeated.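 In this assay, cells in 96-well plates receive the compound at five concentrations for 48 hours. Endpoints are linearly interpolated between the surrounding concentrations. Here, GI50 denotes the concentration required for 50% inhibition of growth. TGI: concentration producing complete growth inhibition.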

Assays:
Experiment in all cases: NCI tumour cell line growth inhibition, 48 h
NCI-H23 lung = system: NCI-H23 lung
SNB-19 CNS = system: SNB-19 CNS
NCI-H460 lung = system: NCI-H460 lung
K-562 leukemia = system: K-562 leukemia
U251 CNS = system: U251 CNS
HOP-92 NSCLC = system: HOP-92 NSCLC
IGROV1 ovarian = system: IGROV1 ovarian
RXF 393 renal = system: RXF 393 renal
A498 renal = system: A498 renal
NCI/ADR-RES ovarian = system: NCI/ADR-RES ovarian

Row | SMILES | GI50 (NCI-H23 lung) | TGI (NCI-H23 lung) | GI50 (SNB-19 CNS) | TGI (SNB-19 CNS) | GI50 (NCI-H460 lung) | TGI (NCI-H460 lung) | GI50 (K-562 leukemia) | TGI (K-562 leukemia) [µM] | GI50 (U251 CNS) | TGI (U251 CNS) | GI50 (HOP-92 NSCLC) | TGI (HOP-92 NSCLC) | GI50 (IGROV1 ovarian) | TGI (IGROV1 ovarian) | GI50 (RXF 393 renal) | TGI (RXF 393 renal) | GI50 (A498 renal) | TGI (A498 renal) | GI50 (NCI/ADR-RES ovarian) | TGI (NCI/ADR-RES ovarian)
1 | C=C(C)[C@@H]1CC[C@]2(C(N)=O)CC[C@]3(C)[C@H](CC[C@@H]4[C@@]5(C)CC[C@H](O)C(C)(C)[C@@H]5CC[C@]43C)[C@@H]12 | 2.26 µM | 5.21 µM | 4.57 µM | 34.3 µM | 2.12 µM | 4.84 µM | 3.04 µM | 19.4 | 2.54 µM | 7.16 µM | 2.69 µM | 8.86 µM | 3.32 µM | 14.5 µM | 2.1 µM | 5.39 µM | 12.2 µM | 76.5 µM | 3.17 µM | 12.5 µM
2 | COc1cc2c3c(c4ccc(OC)c(OC)c4c2cc1OC)CN1CCC[C@@H]1C3 |  | 0.637 µM |  | 0.0826 µM |  | 2.09 µM |  | > 100 |  | > 23.3 µM |  | 0.616 µM |  | 0.935 µM |  | 0.29 µM |  | 0.0681 µM |  | 0.4 µM
3 | Cc1nc2ccccn2c1NC(=O)NNC(=S)Nc1ccc(Br)cc1 |  |  | 39.1 µM | > 100 µM | 34.1 µM | > 100 µM | 21.8 µM | 54.6 | 32.1 µM | > 100 µM | 49.4 µM | > 100 µM | 48.9 µM | > 100 µM | 52.6 µM | > 100 µM | 32.8 µM | 88.1 µM | 24.5 µM | 58 µM
4 | CC(C)CC1C(=O)N2CCC[C@H]2C2(O)O[C@](NC(=O)C3C=C4c5cccc6[nH]c(Br)c(c56)C[C@H]4N(C)C3)(C(C)C)C(=O)N12 (stereo not given in full) | 8.22 µM | > 100 µM |  | > 100 µM | 6.6 µM | > 100 µM | 6.17 µM | > 100 | 9.4 µM | > 100 µM | 1.91 µM | > 100 µM | 6.79 µM | > 100 µM | 4.87 µM | > 100 µM | 3.21 µM | > 100 µM | 8.29 µM | > 100 µM
5 | CCOC(CCCNCCCn1c2c(c3cc(OC)c(OC)cc3c1=O)C(=O)c1cc3c(cc1-2)OCO3)OCC | 5.65 µM | 11.7 µM | 6.13 µM | 12.3 µM | 0.884 µM | 7.3 µM | 5.53 µM | 11.5 | 1.51 µM | 9.44 µM | 0.126 µM | 8.47 µM | 0.889 µM | 9.66 µM | 4.45 µM | 10.7 µM | 5.79 µM | 12.1 µM | 6.5 µM | 13.7 µM
6 | C=CC(=O)N1C/C(=C\c2ccccc2)C(=O)/C(=C/c2ccccc2)C1 |  | 5.43 µM |  | 7.12 µM |  | 4.47 µM | 0.174 µM | 4.04 | 0.376 µM | 2.62 µM |  | 8.64 µM |  | 4.2 µM |  | 4.43 µM |  | 4.03 µM |  | > 27.1 µM
7 | CCNCCC1(CC)C(=O)NC(=O)NC1=O |  | > 100 µM |  | > 100 µM |  | > 100 µM |  | > 100 |  | > 100 µM |  | > 100 µM |  | > 100 µM |  | > 100 µM |  | > 100 µM |  | > 100 µM
8 | C[C@@H](N)C1CCC(C(=O)Nc2ccncc2)CC1 (stereo not given in full) | > 100 µM | > 100 µM | > 100 µM | > 100 µM | > 100 µM | > 100 µM | > 100 µM | > 100 | > 100 µM | > 100 µM | 0.855 µM | > 100 µM | 81.6 µM | > 100 µM | > 100 µM | > 100 µM | > 100 µM | > 100 µM | > 100 µM | > 100 µM
9 | Cc1ccc(S(=O)(=O)Oc2ccc([N+](=O)[O-])cc2[N+](=O)[O-])cc1 | 6.15 µM | 32.3 µM | 17.2 µM | 38.1 µM | 15.4 µM | 39 µM | 0.689 µM | > 100 | 3.83 µM | 14.5 µM | 4.34 µM | 21.7 µM | 2.46 µM | 8.37 µM | 7.89 µM | 20.7 µM | 11.8 µM | 24.9 µM | 5.31 µM | 38 µM
10 | Cc1cc(C(=O)Nc2nc3cccc(Cl)c3n2[C@@H]2CCCCN(C(=O)/C=C/CN(C)C)C2)ccn1 | 12.9 µM | 38 µM | 12.9 µM | 31.2 µM | 8.7 µM | 23.1 µM | 9.58 µM | 61.5 | 11.2 µM | 26 µM | 6.94 µM | 32.2 µM | 0.634 µM | 15.1 µM | 9.35 µM | 25.1 µM | 0.514 µM | 14.1 µM | 5.37 µM | 49 µM
11 | COc1cc(-c2nc(NC(C)=O)sc2-c2ccnc(NCCNS(=O)(=O)c3ccccc3)n2)ccc1Cl | 5 µM | > 100 µM | 6.51 µM | > 100 µM | 3.08 µM | 10.8 µM | 3.87 µM | > 100 | 5.22 µM | > 100 µM | 2.52 µM | 72 µM | 6.75 µM | > 100 µM | 2.74 µM | 7.53 µM | 2.96 µM | 8.97 µM | > 100 µM | > 100 µM
12 | O=C(c1ccc(OCCN2CCCCC2)cc1)c1c(-c2ccc(O)cc2)sc2cc(O)ccc12 | 10.8 µM and 18.5 µM | 27 µM and 45.2 µM | 13.7 µM and 15 µM | 30.5 µM and 34.2 µM | 4.29 µM and 7.96 µM | 17.1 µM and 25.9 µM | 2.5 µM and 7.63 µM |  | 5.53 µM and 7.84 µM | 19.6 µM and 21.1 µM | 1.43 µM and 5.51 µM | 6.72 µM and 29 µM | 12.3 µM and 16.5 µM | 28.9 µM and 38.5 µM | 5.2 µM and 4.32 µM | 19.1 µM and 15.9 µM | 11.6 µM | 26.2 µM | 7.72 µM and 17.7 µM | 23.1 µM and 42.6 µM
13 | COc1c2ccoc2cc2oc(=O)ccc12 |  | > 100 µM |  | > 100 µM |  | > 100 µM |  | > 100 |  | > 100 µM |  | > 100 µM |  | > 100 µM |  | > 100 µM |  | > 100 µM |  | > 100 µM
14 | CCc1c2c(nc3cc4c(c(N)c13)OCO4)-c1cc3c(c(=O)n1C2)COC(=O)[C@]3(O)CC | < 0.001 µM |  | < 0.001 µM | 0.183 µM | < 0.001 µM | 0.47 µM and 0.157 µM | 0.00135 µM | > 100 | < 0.001 µM | 0.0326 µM and 0.174 µM | 0.00602 µM | 0.562 µM and 0.992 µM | 0.161 µM and 0.128 µM |  | 0.0188 µM and 0.043 µM | 0.44 µM and 0.382 µM | 0.00758 µM and 0.0334 µM | 0.252 µM and 0.459 µM |  | 56.7 µM
